Reference: patent publication US20190038597A1, “PREVENTION OF VASCULAR AND CARDIAC FIBROSIS VIA IRE1ALPHA INHIBITION” (McMaster University, priority 2017, published 2019)

Tests used:
[1] = tested on: primary rat renal fibroblasts; test: Picro-Sirius Red assay of collagen production in renal fibroblasts; format: cell-based; conditions: AA2P, TGF-β1, 72 h co-treatment, FIG. 3
Protocol: Rat renal fibroblasts were treated with L-ascorbic acid-2-phosphate, TGF-β1 and 4μ8c for 72 h. Collagen production was measured by a Picro-Sirius Red assay. **, p<0.01.
VSMCs were isolated from the aortas of 5-week old WKY rats using the explant method^29. The thoracic aorta was removed from the animal and placed in ice-cold 5× Antibiotics-Antimycotics solution (ThermoFisher). The adventitia was gently removed and the aorta was cut longitudinally. The endothelial layer was removed by gentle scraping with forceps. The aorta was cut into 3 mm^2 squares and placed on a 6 well plate in DMEM/F12 medium containing 10% fetal bovine serum (FBS). Explants were incubated undisturbed in a 5% CO2 incubator at 37° C. for 1 week and then passaged. Sprague-Dawley renal fibroblasts were purchased (Cell Biologics) and cultured in low glucose DMEM/F12 medium containing 10% FBS, streptomycin (100 μgimp, and penicillin (100 U/ml, Invitrogen, Burlington, ON). Cells between passages 5 and 10 were used for experiments. Cells were cultured in medium containing 1% FBS overnight before treatment.
Collagen synthesis was measured using a Picro-Sirius Red-based assay as previously described^30. Briefly, cells cultured on a 96 well plate were fixed in methanol for 10 minutes at −20° C. […] Absorbance at 540 nm was measured using a Spectramax Plus Microplate Reader (Molecular Devices). […]

spliced XBP1, GRP78, PDI = test: Aortic collagen chaperone and ER stress marker expression (qRT-PCR, Western blot) in L-NAME-treated SHRs; format: in vivo, rat
Protocol: 12-14 week old male SHRs were randomized to receive vehicle, L-NAME (50 mg/L) or L-NAME and 4μ8c (2.5 mg/kg/day i.p.) for 18 days. Total RNA was extracted from flash frozen aortic tissues. (A) qRT-PCR was used to assess relative mRNA expression of spliced XBP1 and GRP78. 18S was used as a housekeeping gene. (B) Protein levels of PDI and GRP78 were assessed by western blotting and normalized to β-actin. Data is presented as mean±SEM. *, p<0.05 vs. NT. #, p<0.05 vs L-NAME.
12-14 week old male SHRs were used to determine the effect of pharmacological IRE1α inhibition on L-NAME-induced vascular stiffening. They were maintained on a 12-hour light-dark cycle with rat chow and water ad libitium. Animals were implanted with radio-telemetry devices (Data Science International, St. Paul, Minn., USA) one week before the start of the study. Animals were randomized into one of three groups (n=6 per group): 1) No treatment, 2) L-NAME (50 mg/L in drinking water, Sigma-Aldrich), or 3) L-NAME+4μ8c (2.5 mg/kg/day i.p., Millipore). 4μ8c was administered in a vehicle of 10% DMSO, 10% Tween-80 and 80% normal saline. Animals in Group 2 received daily injections of the vehicle. All animals were fed a normal chow diet. At 18 days, animals were sacrificed, organs were harvested and the aorta was collected for mechanical and structural analysis. All animal work was performed according to the guidelines approved by the McMaster University Animal Research Ethics Board.
Total RNA was extracted from cultured cells and rat tissues using the TRIzol reagent (ThermoFisher) according to manufacturer's instructions. RNA concentration and purity were measured using a Nanodrop ND-1000 spectrophotometer (NanoDrop Technologies, Inc.). […]
For qRT-PCR, cDNA was amplified using the Fast SYBR Green Master Mix (ThermoFisher) and analyzed with 7500 Software. […]
Cells were lysed in 1× Laemmli buffer and protein content was quantified using the BioRad DC Protein Assay (BioRad, Mississauga, Canada). […]

## Cc1cc(=O)oc2c(C=O)c(O)ccc12 [4μ8c, 7-Hydroxy-4-methyl-2-oxo-2H-chromene-8-carbaldehyde]
[1]
  collagen levels in response to TGF-β1: reduced
Spliced XBP1, GRP78, PDI; L-NAME+4μ8c group compared to the other two groups, Western blot
  GRP78 protein in the aorta: significantly decreased
Spliced XBP1, GRP78, PDI; L-NAME+4μ8c group vs L-NAME group, Western blot
  PDI protein expression in the aorta: significantly decreased
Spliced XBP1, GRP78, PDI; L-NAME+4μ8c group vs L-NAME group, qRT-PCR, FIG. 6A
  Spliced XBP1 and GRP78 mRNA expression in the aorta: reduced
